For 28 compounds, IC50 results are on record in patent US9486455B2, “Compounds for modulating TRPV3 function” (HYDRA BIOSCIENCES, INC., priority 2007, dated 2016).

Assay [1] has as its target T1, human (h) TRPV3 (Homo sapiens, UniProt Q8NET8).
T1 construct: expressed in transfected cells; host or cells: HEK293/TREx, tetracycline-induced
T1 sequence (Q8NET8 1-790): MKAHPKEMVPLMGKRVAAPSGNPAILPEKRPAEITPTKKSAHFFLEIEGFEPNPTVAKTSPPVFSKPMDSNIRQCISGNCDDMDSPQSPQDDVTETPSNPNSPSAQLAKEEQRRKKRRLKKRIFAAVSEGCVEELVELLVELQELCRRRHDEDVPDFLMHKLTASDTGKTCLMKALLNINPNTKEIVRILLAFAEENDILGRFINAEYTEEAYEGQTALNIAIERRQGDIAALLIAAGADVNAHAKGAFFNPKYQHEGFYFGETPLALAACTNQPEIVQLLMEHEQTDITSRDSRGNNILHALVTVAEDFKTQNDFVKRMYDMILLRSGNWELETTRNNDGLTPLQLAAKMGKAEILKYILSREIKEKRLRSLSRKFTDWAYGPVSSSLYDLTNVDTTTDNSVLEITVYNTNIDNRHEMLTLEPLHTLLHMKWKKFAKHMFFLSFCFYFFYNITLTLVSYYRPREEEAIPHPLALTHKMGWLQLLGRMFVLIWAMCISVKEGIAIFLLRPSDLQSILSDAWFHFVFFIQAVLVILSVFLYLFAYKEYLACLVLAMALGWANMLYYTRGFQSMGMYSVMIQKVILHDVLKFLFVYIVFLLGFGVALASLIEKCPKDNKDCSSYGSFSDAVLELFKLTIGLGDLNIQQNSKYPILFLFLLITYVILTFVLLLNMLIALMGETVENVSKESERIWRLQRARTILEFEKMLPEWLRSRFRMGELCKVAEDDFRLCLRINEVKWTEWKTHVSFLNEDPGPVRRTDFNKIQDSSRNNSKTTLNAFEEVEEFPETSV
As to the kind of experiment: Whole-cell patch clamp, human TRPV3-mediated currents. In kind it is cell-based. The source says:
(§1) Whole-cell patch clamp experiments permit the detection of currents through the TRPV3 channel in the cell line described above. A glass electrode is brought into contact with a single cell and the membrane is then ruptured, permitting control of the voltage of the cell membrane and measurement of currents flowing across the membrane using the amplifier attached to the electrode. A perfusion system permits control of the extracellular solution, including the addition of blockers and activators of the current. The current can be activated by heating this solution to 28° C. or warmer or by addition of 20 μM 2-APB to the solution.
(§2) TRPV3 cells were induced 20-48 hours, removed from growth plates, and replated at low density (to attain good single-cell physical separation) on glass coverslips for measurement. In some cases, cells were grown in low density overnight on glass coverslips. Patch clamp recordings were made in the whole-cell mode with a holding potential of −40 mV. Every 5 seconds, a voltage ramp was applied from −120 to +100 mV, 400 ms in duration. Currents elicited were quantified at −80 mV and +80 mV. The internal solution consisted of 140 mM cesium aspartate, 10 mM EGTA, 2.27 mM MgCl2, 1.91 mM CaCl2 and 10 mM HEPES, pH to 7.2 with KOH; with 50 nM calculated free Ca^2+. External solution was Ringer's solution described above. Upon addition of 2-APB or upon heating of the extracellular solution as described above, TRPV3 current was induced only in TRPV3-expressing cells and not in parental HEK293 TREx cells. […] Removal of the stimulus caused most of the current to go away, and inhibitor addition could still inhibit this current. […]
(§3) P1 refers to the Phase 1 current for human (h) and rat (r) TRPV3, and P2 refers to the Phase 2 current for human (h) and rat (r) TRPV3.

For assay [2], the target named is T2, rat (r) TRPV3 (Rattus norvegicus, UniProt Q4QYD9).
T2 construct: expressed in transfected cells
T2 sequence (Q4QYD9 1-791): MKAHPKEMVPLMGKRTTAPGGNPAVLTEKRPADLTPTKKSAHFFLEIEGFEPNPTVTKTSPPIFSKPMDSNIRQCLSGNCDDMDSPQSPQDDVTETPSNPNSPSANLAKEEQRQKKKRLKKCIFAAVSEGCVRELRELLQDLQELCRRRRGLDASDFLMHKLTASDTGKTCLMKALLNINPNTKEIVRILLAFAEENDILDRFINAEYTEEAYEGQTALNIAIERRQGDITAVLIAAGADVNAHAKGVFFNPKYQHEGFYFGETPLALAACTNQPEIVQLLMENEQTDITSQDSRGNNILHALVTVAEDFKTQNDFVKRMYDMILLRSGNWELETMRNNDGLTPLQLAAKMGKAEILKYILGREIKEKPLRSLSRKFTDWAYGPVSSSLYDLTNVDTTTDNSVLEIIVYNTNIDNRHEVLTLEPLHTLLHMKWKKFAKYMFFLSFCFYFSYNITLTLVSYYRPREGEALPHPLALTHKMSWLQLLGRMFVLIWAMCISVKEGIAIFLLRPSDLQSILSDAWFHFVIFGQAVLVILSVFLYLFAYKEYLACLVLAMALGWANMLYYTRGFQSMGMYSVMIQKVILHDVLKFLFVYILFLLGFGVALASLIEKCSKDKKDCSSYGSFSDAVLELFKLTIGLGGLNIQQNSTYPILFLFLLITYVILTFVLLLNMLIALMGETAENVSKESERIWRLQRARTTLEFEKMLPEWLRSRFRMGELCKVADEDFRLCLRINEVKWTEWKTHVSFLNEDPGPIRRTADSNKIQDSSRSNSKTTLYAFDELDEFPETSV
In words: Whole-cell patch clamp, rat TRPV3-mediated currents. The format is cell-based.
Source text: as §1, §2, §3

Where [3] appears, read: Phase 1 inward current, read-out: P1 In (h).
Where [4] appears, read: Phase 2 inward current, read-out: P2 In (h).
[5] abbreviates: Phase 1 outward current, read-out: P1 Out (h).
The mark [6] stands for this setting: Phase 2 outward current, read-out: P2 Out (h).
Setting [7] is: Phase 1 inward current, read-out: P1 In (r).
[8] abbreviates: Phase 1 outward current, read-out: P1 Out (r).
The mark [9] stands for this setting: Phase 2 inward current, read-out: P2 In (r).
Where [10] appears, read: Phase 2 outward current, read-out: P2 Out (r).

Read-outs that look alike come from different tables or passages of the source.
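Further: compounds tested at concentrations up to 30 µM.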

With `COc1cccc(/C=C/c2nc3ccccc3c(=O)n2-c2c(C)cc(OCCO)cc2C)c1O` [Compound 1], the IC50 in assay [1] (setting [3]) and in assay [1] (setting [4]) was at most 1000 nM in each case.
In the case of `COc1cccc(/C=C(\C)c2nc3ccccc3c(=O)n2-c2ccccc2C)c1O` [Compound 2], the IC50 in assay [1] (setting [3]) and in assay [1] (setting [4]) was at most 5000 nM throughout.
Consider `COc1cccc(/C=C/c2nc3ccccc3c(=O)n2-c2c(C)cc(OCCN(C)C)cc2C)c1O` [Compound 3], for which the IC50 is at most 10000 nM in assay [1] (setting [3]) and at most 5000 nM in assay [1] (setting [4]).
Turning to `Cc1ccccc1-n1c(-c2ccoc2)nc2ccccc2c1=O` [Compound 4], the IC50 in assay [1] (setting [3]) and in assay [1] (setting [4]) was at most 10000 nM throughout.
`Cc1ccccc1-n1c(/C=C/c2nnn[nH]2)nc2ccccc2c1=O` [Compound 5]: the IC50 in assay [1] (setting [3]) and in assay [1] (setting [4]) was above 10000 nM in each case.
For `Cc1cccc(C)c1-n1c(/C=C/c2cccc3cn[nH]c23)nc2cnccc2c1=O` [Compound 10], the IC50 in assay [1] (setting [3]) and in assay [1] (setting [5]) was at most 10000 nM each time.
Regarding `Cc1cccc(C)c1-n1c(/C=C/c2cccc(OC(F)(F)F)c2O)nc2cnccc2c1=O` [Compound 12], the IC50 in assay [1] (setting [3]), in assay [1] (setting [5]), in assay [1] (setting [4]), in assay [1] (setting [6]), in assay [2] (setting [7]) and in assay [2] (setting [8]) was at most 500 nM throughout.
As to `COc1ccccc1-n1c(/C=C/c2cccc(OC)c2O)nc2cnccc2c1=O` [Compound 13], the IC50 in assay [1] (setting [3]) and in assay [1] (setting [5]) was at most 10000 nM each time.
On to `COc1cccc(/C=C/c2nc3cnccc3c(=O)n2-c2c(C)cccc2OC)c1O` [Compound 14], for which the IC50 in assay [1] (setting [3]), in assay [1] (setting [5]), in assay [1] (setting [4]), in assay [1] (setting [6]), in assay [2] (setting [7]) and in assay [2] (setting [8]) was at most 500 nM throughout. Further, the IC50 in assay [2] (setting [9]) is at most 500 nM; in assay [2] (setting [10]) it was at most 1000 nM.
As to `COc1nccc(/C=C/c2nc3cnccc3c(=O)n2-c2c(C)cccc2C)c1O` [Compound 15], the IC50 in assay [1] (setting [3]), in assay [1] (setting [5]), in assay [1] (setting [4]), in assay [1] (setting [6]), in assay [2] (setting [7]) and in assay [2] (setting [8]) was at most 500 nM in each case. Also, the IC50 in assay [2] (setting [9]) and in assay [2] (setting [10]) was at most 500 nM throughout.
On to `COc1cccc(/C=C/c2nc3cnccc3c(=O)n2-c2c(C)cccc2Cl)c1O` [Compound 16], for which the IC50 in assay [1] (setting [3]), in assay [1] (setting [5]), in assay [1] (setting [4]), in assay [1] (setting [6]), in assay [2] (setting [7]) and in assay [2] (setting [8]) was at most 500 nM throughout. In addition, the IC50 in assay [2] (setting [9]) and in assay [2] (setting [10]) was at most 500 nM each time.
As for `COc1cccc(-n2c(/C=C/c3cccc(OC)c3O)nc3cnccc3c2=O)c1C` [Compound 17], the IC50 in assay [1] (setting [3]), in assay [1] (setting [5]), in assay [1] (setting [4]) and in assay [1] (setting [6]) was at most 10000 nM in each case.
Consider `CCOc1cccc(/C=C/c2nc3cnccc3c(=O)n2-c2c(F)cccc2F)c1O` [Compound 18], for which the IC50 in assay [1] (setting [3]) is at most 500 nM; in assay [1] (setting [5]), at most 500 nM; in assay [1] (setting [4]), at most 500 nM; in assay [1] (setting [6]), at most 10000 nM.
As to `Cc1cccc(C)c1-n1c(/C=C/c2cc(Cl)ccc2O)nc2cnccc2c1=O` [Compound 20], the IC50 is at most 5000 nM in assay [1] (setting [3]) and at most 10000 nM in assay [1] (setting [5]).
As to `Cc1cccc(C)c1-n1c(/C=C/c2cc(OC(F)(F)F)ccc2O)nc2cnccc2c1=O` [Compound 21], the IC50 in assay [1] (setting [3]) and in assay [1] (setting [5]) was at most 10000 nM each time.
In the case of `Cc1cccc(C)c1-n1c(/C=C/c2cc(Cl)cnc2O)nc2cnccc2c1=O` [Compound 22], the IC50 in assay [1] (setting [3]) and in assay [1] (setting [5]) was at most 10000 nM each time.
Turning to `Cc1ccc(O)c(/C=C/c2nc3cnccc3c(=O)n2-c2c(C)cccc2C)n1` [Compound 23], the IC50 in assay [1] (setting [3]) and in assay [1] (setting [5]) was at most 10000 nM throughout.
Take `COc1cccc(/C=C/c2nc3cnccc3c(=O)n2-c2c(C)cccc2C)n1` [Compound 24]: the IC50 in assay [1] (setting [3]) and in assay [1] (setting [5]) was at most 10000 nM throughout.
Consider `COc1cccc(/C=C/c2nc3cnccc3c(=O)n2-c2ccccc2C#N)c1O` [Compound 25], for which the IC50 in assay [1] (setting [3]) was at most 10000 nM; in assay [1] (setting [5]), at most 5000 nM.
The corresponding values for `COc1cc(/C=C/c2nc3cnccc3c(=O)n2-c2c(C)cccc2C)ccn1` [Compound 26] are at most 10000 nM and at most 5000 nM.
As for `Cc1cccc(C)c1-n1c(/C=C/c2cnccc2O)nc2cnccc2c1=O` [Compound 29], the IC50 in assay [1] (setting [3]) and in assay [1] (setting [5]) was at most 10000 nM in each case.
As to `CCOc1cccc(C=Cc2nc3cnccc3c(=O)n2-c2ccccc2C)c1O` [Compound 31], the IC50 in assay [1] (setting [3]), in assay [1] (setting [5]), in assay [1] (setting [4]), in assay [1] (setting [6]), in assay [2] (setting [7]) and in assay [2] (setting [8]) was at most 500 nM throughout.
As to `COc1ccnc(/C=C/c2nc3ccccc3c(=O)n2-c2c(C)cccc2C)c1O` [Compound 39], the IC50 in assay [1] (setting [3]), in assay [1] (setting [5]), in assay [1] (setting [4]) and in assay [1] (setting [6]) was at most 10000 nM in each case.
As for `COc1cccc(NC(=O)Nc2nc3ccccc3c(=O)n2-c2c(C)cccc2C)c1O` [Compound 46], the IC50 in assay [1] (setting [3]) and in assay [1] (setting [5]) was at most 5000 nM in each case.
As for `COc1cccc(/C=C/c2nc3ccccc3c(=O)n2-c2c(C)cccc2OCCO)c1O` [Compound 48], the results for the IC50 in assay [1] (setting [3]), in assay [1] (setting [5]) and in assay [1] (setting [6]) were at most 500 nM, at most 1000 nM and at most 1000 nM, respectively.
As for `COc1ccccc1-n1c(/C=C/c2cccc(OC)c2O)nc2ccccc2c1=O` [Compound 52], the IC50 in assay [1] (setting [3]), in assay [1] (setting [5]), in assay [1] (setting [4]) and in assay [1] (setting [6]) was at most 500 nM each time.
Take `COc1cccc(C=Cc2nc3ccccc3c(=O)n2-c2c(C)cccc2C)c1OP(=O)(O)O` [Compound 53]: the IC50 in assay [1] (setting [3]), in assay [1] (setting [5]), in assay [1] (setting [4]) and in assay [1] (setting [6]) was at most 500 nM each time.
On to `COc1cccc(-n2c(/C=C/c3cccc(OC)c3O)nc3ccccc3c2=O)c1` [Compound 54], for which the IC50 in assay [1] (setting [3]), in assay [1] (setting [5]), in assay [1] (setting [4]) and in assay [1] (setting [6]) was at most 500 nM throughout.
